Assays:
[1] = target: Tyrosine-protein kinase SYK (Homo sapiens, UniProt P43405); assay: Syk Kinase Activity Inhibitiory Experiment: Measure of SYK protein kinase activity was carried out by using the Caliper mobility shift assay. The compound was dissolved with DMSO and diluted with kinase buffer (20 mM HEPES pH 7.5, 0.01% Triton X-100, 5 mM MgCl2, 1 mM MnCl2, 2 mM DTT), and 5 μl of 5 times the final concentration of the compounds (10% DMSO) were added to 384 well plate. 10 μl of 2.5 fold enzyme (with SYK) solution was added and incubated at room temperature for 10 minutes, then 10 of 2.5 fold substrate (Peptide FAM-P22) and ATP) solution was added. The mixture was incubated for 30 minutes under 28° C., and 25 μl of stop buffer (100 mM HEPES pH 7.5, 0.015% Brij-35, 0.2% Coating Reagent #3, 50 mM EDTA) was added to terminate the reaction. Conversion rate data was read by Caliper EZ Reader II (Caliper Life Sciences). Conversion rate was converted to inhibition rate data (% inhibition rate=(max−conversion rate)/(max−min)*100). The max refers to the conversion rate of the DMSO control, and min refers to the conversion rate of the enzyme-free control. The curve was drawn with the compound concentration and inhibition rate as the horizontal and vertical coordinates, and the curve was fitted with the XLFit excel add-in version 4.3.1 Software, and IC50 was calculated.
Histone deacetylase 1 = Histone deacetylase 1 (Homo sapiens, UniProt Q13547); assay: HDAC-1 and HDAC-6 Activity Inhibition Experiment: HDAC activity was measured by the Synergy MX Multi-Function Microplate Reader. The compounds were dissolved with DMSO, and transferred to a 384 well test plate using an Echo non-contact nanoscale sonic pipetting system. 15 μl of enzyme (HDAC1/HDAC6, respectively) solvent was added, and incubated at room temperature for 15 minutes, then 10 μl of substrate (trypsin and Ac-peptide) solution was added. Fluorescence intensity signal was read directly on Synergy MX (fluorescence excitation 355 nm, emission fluorescence 460 nm) after cultivated at room temperature for 60 minutes. Fluorescence intensity signal was convented into inhibition rate data (% inhibition rate=(max−fluorescence intensity)/(max−min)*100). The max refers to the fluorescence intensity of the DMSO control, and min refers to the fluorescence intensity of the enzyme-free control. The curve was drawn with the compound concentration and inhibition rate as the horizontal and vertical coordinates, and the curve was fitted with the GraphPad Prism V5.0 Software, and IC50 was calculated.
Chain of Histone deacetylase 1 (Q13547 whole entry): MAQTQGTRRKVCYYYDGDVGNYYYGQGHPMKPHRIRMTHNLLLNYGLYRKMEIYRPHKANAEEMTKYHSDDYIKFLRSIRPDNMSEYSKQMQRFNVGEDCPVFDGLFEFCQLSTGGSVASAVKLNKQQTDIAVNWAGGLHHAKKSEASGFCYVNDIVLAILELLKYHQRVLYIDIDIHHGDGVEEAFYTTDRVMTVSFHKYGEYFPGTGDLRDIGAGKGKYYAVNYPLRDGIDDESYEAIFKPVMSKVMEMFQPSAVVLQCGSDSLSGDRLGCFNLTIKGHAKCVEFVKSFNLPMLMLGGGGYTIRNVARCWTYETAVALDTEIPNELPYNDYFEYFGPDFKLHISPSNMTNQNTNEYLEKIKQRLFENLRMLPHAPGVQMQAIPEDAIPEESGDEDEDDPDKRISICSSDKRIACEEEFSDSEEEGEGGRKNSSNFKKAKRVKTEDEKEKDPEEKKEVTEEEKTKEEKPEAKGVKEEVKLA

- IC50 [1]: < 500 nM
- IC50 (Histone deacetylase 1): < 100 nM
SMILES: O=C(CCCCCCNC(=O)c1cccc(-c2cn3ccnc3c(Nc3ccc(N4CCOCC4)cc3)n2)c1)NO

From ChEMBL document CHEMBL5728758, “Heterocyclic compound as Syk inhibitor and/or Syk-HDAC dual inhibitor” (2021)
